Experiment [1] concerns oil palm fruit. The experiment can be described thus: Field study of fruit abscission (cumulative loose fruit and loose mass) after a single bunch-directed preharvest spray. Particulars: for Cumulative Loose Mass / % Difference with UTC (Cumulative Loose Fruit) / % Difference with UTC (Cumulative Loose Mass) / Cumulative Loose Fruit: single spray 100 mL/bunch; for Cumulative Loose Mass / % Difference with UTC (Cumulative Loose Fruit) / % Difference with UTC (Cumulative Loose Mass): 14 days; for % Difference with UTC (Cumulative Loose Fruit) / % Difference with UTC (Cumulative Loose Mass): vs untreated control; for Cumulative Loose Fruit: counted for 14 days. The class given is in vivo, oil palm (cross between Compact and Ghana). On the procedure:
A study was conducted in a plantation in Costa Rica to compare the effects of single bunch-directed applications of: (1) untreated control (water sprayed); (2) AVG at 500 ppm (59.5 g) active ingredient (a.i.); (3) 20 ppm (2.4 g) a.i. of 1-MCP; (4) 67 ppm (8.0 g) a.i. of 1-MCP; and (5) 200 ppm (23.8 g) a.i. of 1-MCP. Total g a.i./ha for each treatment was calculated assuming 7 bunches per palm and 170 palms per ha. In this study, AVG and 1-MCP were provided in a formulation as AVG-HC1 and 1-MCP at concentrations of 20% and 1.3%, respectively.
For each treatment, 27 palms were randomly selected covering about 15 hectares. The variety of plants used was a cross between Compact and Ghana. The plants were three years old at the time of treatment. A CO2 sprayer was used to spray all treatments (100 mL/bunch) to bunches with 1 to 4 loose fruits. The time required to spray each bunch was about 8 seconds at 20 psi using a 2.0 full cone nozzle. The treatments were applied once per bunch. Four, six, four, three and ten bunches per treatment were sprayed on Feb. 6, 13, 20, 27 and Mar. 3, 2015, respectively.
Cumulative loose fruit (CLF) and cumulative loose mass (CLM) counts were determined on a daily basis for 14 days with the exception of days 2 and 9 after initial spray as measure to objectively quantify fruit abscission. An electronic balance was used to weigh all fruit. All loose fruit on the bunch, branches and on the ground was counted and weighted.

Experiment [2] has as its system oil palm fruit. As to conditions: postharvest application; cited from earlier work.
Experiment [3] has as its system oil palm fruit. As to conditions: preharvest application to attached bunches; cited from earlier work.

“And” between values parts separate entries of the source, which are not always exact repeats. Identical values can stand only once.

Regarding `CC1=CC1` [1-MCP, 1-methylcyclopropene], in the experiment with oil palm fruit [1] (20 ppm (2.4 g a.i./ha)), the “Cumulative Loose Mass” value worked out at 1465 g, the “% Difference with UTC (Cumulative Loose Fruit)” value is listed as 6.7%, the “% Difference with UTC (Cumulative Loose Mass)” value is listed as 17.1% and the “Cumulative Loose Fruit” value came to 138.8. In the experiment on oil palm fruit [1] (67 ppm (8.0 g a.i./ha)), the “Cumulative Loose Mass” value is given as 1163 g, the “% Difference with UTC (Cumulative Loose Fruit)” value was determined as 28.6%, the “% Difference with UTC (Cumulative Loose Mass)” value was 34.2% and the “Cumulative Loose Fruit” value came to 106.2. In addition, in the experiment with oil palm fruit [1] (200 ppm (23.8 g a.i./ha)), the “Cumulative Loose Mass” value is recorded as 1149 g; the “% Difference with UTC (Cumulative Loose Fruit)” value was determined as 29.6%; the “% Difference with UTC (Cumulative Loose Mass)” value is 36.0% and 35.0%; the “Cumulative Loose Fruit” value worked out at 104.7. Besides, the “Effect on oil palm fruit drop” value in the experiment on oil palm fruit [1] (preharvest bunch spray, 20, 67 and 200 ppm) is reported as “delayed palm oil fruit drop”. In the experiment with oil palm fruit [2], the “Effect on oil content” value was “reduced oil content” and the “Effect on ripening of oil palm fruit” value is listed as “delayed ripening”.
With `O=P(O)(O)CCCl` [ethephon, 2-chloroethyl phosphonic acid], the “Increase of oil content” value in the experiment on oil palm fruit [3] was 7%.

(Values after patent publication US9538749B2, “Methods for increasing oil palm yield” (Valent BioSciences Corporation, priority 2014, dated 2017).)
